Measured values: ChEMBL document CHEMBL1149219, “Binding of beta-carbolines at imidazoline I2 receptors: a structure-affinity investigation” (Bioorg Med Chem Lett, 2004)

Experiments:
[1] = Binding affinity at rat imidazoline receptor I-2
[2] = target: T1, Adrenergic receptor alpha-2 (Rattus norvegicus, UniProt P22086+P19328+P22909); experiment: Binding affinity at alpha-2 adrenergic receptors of rat.; format: protein assay
T1 sequence (P22086 whole entry): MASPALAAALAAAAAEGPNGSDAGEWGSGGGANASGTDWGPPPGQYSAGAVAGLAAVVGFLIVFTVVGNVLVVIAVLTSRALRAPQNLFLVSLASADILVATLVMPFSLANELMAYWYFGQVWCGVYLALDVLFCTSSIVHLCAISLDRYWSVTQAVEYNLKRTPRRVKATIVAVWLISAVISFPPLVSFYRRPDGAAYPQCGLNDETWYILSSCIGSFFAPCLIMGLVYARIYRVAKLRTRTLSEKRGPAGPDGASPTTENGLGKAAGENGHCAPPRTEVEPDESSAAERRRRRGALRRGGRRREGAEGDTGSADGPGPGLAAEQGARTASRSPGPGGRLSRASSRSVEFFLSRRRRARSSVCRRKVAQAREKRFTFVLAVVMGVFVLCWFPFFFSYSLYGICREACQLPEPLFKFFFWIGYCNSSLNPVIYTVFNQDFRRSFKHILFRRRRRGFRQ
T1 sequence (P19328 whole entry): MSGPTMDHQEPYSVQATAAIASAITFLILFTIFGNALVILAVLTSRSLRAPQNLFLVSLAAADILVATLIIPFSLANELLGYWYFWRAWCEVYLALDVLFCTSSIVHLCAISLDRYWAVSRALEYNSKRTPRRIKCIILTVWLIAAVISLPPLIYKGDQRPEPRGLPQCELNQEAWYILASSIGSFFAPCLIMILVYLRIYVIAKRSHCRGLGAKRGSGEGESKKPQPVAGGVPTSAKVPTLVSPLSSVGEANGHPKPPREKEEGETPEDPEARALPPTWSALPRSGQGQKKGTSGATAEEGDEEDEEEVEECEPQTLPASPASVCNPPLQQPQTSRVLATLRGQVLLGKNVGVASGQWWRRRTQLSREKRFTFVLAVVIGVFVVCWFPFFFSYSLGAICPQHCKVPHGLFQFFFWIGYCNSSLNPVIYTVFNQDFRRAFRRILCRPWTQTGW
T1 sequence (P22909 whole entry): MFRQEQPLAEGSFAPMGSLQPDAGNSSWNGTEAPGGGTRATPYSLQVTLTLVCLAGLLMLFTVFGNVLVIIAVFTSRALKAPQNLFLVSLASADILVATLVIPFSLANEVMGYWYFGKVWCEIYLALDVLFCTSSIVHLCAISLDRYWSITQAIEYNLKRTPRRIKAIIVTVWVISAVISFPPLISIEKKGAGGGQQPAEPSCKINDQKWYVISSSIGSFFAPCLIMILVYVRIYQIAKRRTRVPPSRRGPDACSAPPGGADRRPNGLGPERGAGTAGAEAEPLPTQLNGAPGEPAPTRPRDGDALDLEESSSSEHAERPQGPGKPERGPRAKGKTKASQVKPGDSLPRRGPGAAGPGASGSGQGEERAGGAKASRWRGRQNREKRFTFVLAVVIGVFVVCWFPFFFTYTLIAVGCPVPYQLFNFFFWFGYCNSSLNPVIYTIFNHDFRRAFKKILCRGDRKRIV

[3] = target: T2, Alpha-2A adrenergic receptor (Rattus norvegicus, UniProt P22909); experiment: Binding affinity at alpha-2 adrenergic receptor of rat.
T2 sequence (P22909 whole entry): T1 sequence (P22909 whole entry)

[4] = target: 5-hydroxytryptamine receptor 2A (Rattus norvegicus, UniProt P14842); experiment: Binding affinity at 5-hydroxytryptamine 2A receptor of rat.
5-hydroxytryptamine receptor 2A, sequence (P14842 whole entry): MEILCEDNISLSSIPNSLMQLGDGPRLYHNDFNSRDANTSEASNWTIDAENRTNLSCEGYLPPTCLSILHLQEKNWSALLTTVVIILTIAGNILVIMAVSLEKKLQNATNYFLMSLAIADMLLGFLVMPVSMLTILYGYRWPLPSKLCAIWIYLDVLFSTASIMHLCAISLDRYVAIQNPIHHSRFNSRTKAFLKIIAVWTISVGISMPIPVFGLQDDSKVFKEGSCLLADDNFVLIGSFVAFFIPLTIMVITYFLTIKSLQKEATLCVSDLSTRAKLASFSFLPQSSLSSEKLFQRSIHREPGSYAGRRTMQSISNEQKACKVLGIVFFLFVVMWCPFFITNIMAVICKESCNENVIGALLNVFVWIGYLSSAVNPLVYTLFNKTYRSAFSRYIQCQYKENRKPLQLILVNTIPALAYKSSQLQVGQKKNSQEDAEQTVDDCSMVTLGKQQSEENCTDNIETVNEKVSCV

[5] = target: T3, Alpha-2B adrenergic receptor (Rattus norvegicus, UniProt P19328); experiment: Binding affinity at alpha 2B adrenergic receptor of rat.
T3 sequence (P19328 whole entry): T1 sequence (P19328 whole entry)

Compound	Ki [1] [nM]	Ki [2] [µM]	Ki [3] [nM]	Ki [4] [nM]	Ki [5] [nM]
Brc1ccc2c3c([nH]c2c1)C=NCC3	400	10.7	–	–	–
COc1ccc2[nH]c3c(c2c1)CCN=C3	480	2.19	–	–	–
Brc1cccc2[nH]c3c(c12)CCNC3	5.4	0.39	–	–	–
Brc1cccc2c3c([nH]c12)C=NCC3	17	0.815	–	–	–
NCCc1c[nH]c2ccccc12 [TRYPTAMINE]	5400	19	–	–	–
COc1cc(Br)c2c3c([nH]c2c1)CNCC3	1740	–	–	–	–
COc1ccc2c3c([nH]c2c1)C=NCC3 [CGS-19281A]	18	> 10	–	–	–
COc1cccc2[nH]c3c(c12)CCNC3	300	0.825	–	–	–
COc1ccc2c(c1)[nH]c1c(C)nccc12 [HARMINE]	49	–	–	–	–
COc1ccc2[nH]c3c(c2c1)CCNC3	1640	7.83	–	–	–
COc1cccc2c3c([nH]c12)C=NCC3	160	5.02	–	–	–
COc1ccc2c(c1)[nH]c1cnccc12	87	–	–	–	–
Brc1ccc2c3c([nH]c2c1)CNCC3	1290	15.5	–	–	–
c1ccc2c3c([nH]c2c1)CNCC3 [TRYPTOLINE]	9.4	–	–	–	–
NCc1c[nH]c2ccccc12	3440	14.7	–	–	–
COc1cccc2c3c([nH]c12)CNCC3	270	0.64	–	–	–
Brc1ccc2[nH]c3c(c2c1)CCN=C3	790	5.29	–	–	–
Brc1cccc2c3c([nH]c12)CNCC3	3.6	–	460	–	–
Cn1c2c(c3ccccc31)CCNC2	5.4	–	–	–	–
Cn1c2c(c3ccccc31)CCNCC2 [PNU-22394]	1030	0.415	–	–	–
c1ccc2c3c([nH]c2c1)CCNC3	4.7	0.6	–	–	–
COc1cccc2[nH]c3c(c12)CCN=C3	84	0.33	–	–	–
COc1ccc2c3c([nH]c2c1)CNCC3	–	–	–	> 1000	140
Brc1ccc2[nH]c3c(c2c1)CCNC3	2780	11.5	–	–	–
Brc1cccc2[nH]c3c(c12)CCN=C3	86	3.16	–	180	–
C1=NCCc2c1[nH]c1ccccc21	7.3	0.7	–	–	–
